Measured values reported in patent publication US11421001B2, “Template-fixed peptidomimetics” (UNIVERSITAET ZUERICH, priority 2007, dated 2022).
Positions of bridges follow the written chain, without caps; N, C: chain ends. Non-standard residues stand in square brackets, D forms with d. Residues, ends and D or L forms follow the SMILES beside them. Dab = NCC[C@H](N)C(=O)O

Key:
[1] = Cytotoxicity assay (MTT reduction); assay type: cell-based; conditions: human, HELA cells (Acc57), peptides at 12.5, 25 and 50 μM, trend line, read-out: Cyto-toxicity LC50/GI50 Hela cells
Experimental: The cytotoxicity of the peptides to HELA cells (Acc57) and COS-7 cells (CRL-1651) was determined using the MTT reduction assay [see ref. 6 and 7, below]. Briefly the method was as follows: HELA cells and COS-7 cells were seeded at 7.0×10^3 and, respectively, 4.5×10^3 cells per well and grown in 96-well microtiter plates for 24 hours at 37° C. at 5% CO2. At this point, time zero (Tz) was determined by MTT reduction (see below). The supernatant of the remaining wells was discarded, and fresh medium and the peptides in serial dilutions of 12.5, 25 and 50 μM were pipetted into the wells. Each peptide concentration was assayed in triplicate. Incubation of the cells was continued for 48 hours at 37° C. at 5% CO2. Wells were then washed once with PBS and subsequently 100 μl MTT reagent (0.5 mg/mL in medium RPMI1640 and, respectively, DMEM) was added to the wells. This was incubated at 37° C. for 2 hours and subsequently the medium was aspirated and 100 μl isopropanol was added to each well. The absorbance at 595 nm of the solubilized product was measured (OD595peptide). For each concentration averages were calculated from triplicates. The percentage of growth was calculated as follows: (OD595peptide−OD595Tz−OD595Empty well)/(OD595Tz−OD595Empty well)×100% and was plotted for each peptide concentration. […]

[2] = system: human red blood cells (hRBC); test: Hemolysis; assay type: cell-based
Experimental: The peptides were tested for their hemolytic activity against human red blood cells (hRBC). Fresh hRBC were washed three times with phosphate buffered saline (PBS) by centrifugation for 10 min at 2000×g. Peptides at a concentration of 100 μM were incubated with 20% v/v hRBC for 1 hour at 37° C. The final erythrocyte concentration was approximately 0.9×10^9 cells per ml. A value of 0% resp. 100% cell lysis was determined by incubation of the hRBC in the presence of PBS alone and respectively 0.1% Triton X-100 in H2O. The samples were centrifuged and the supernatant was 20-fold diluted in PBS buffer and the optical density (OD) of the sample at […] was measured. The 100% lyses value (OD540H2O) gave an OD540 of approximately 1.3-1.8. Percent hemolysis was calculated as follows: (OD540peptide/OD540H2O)×100%.

[3] = system: CCRF-CEM cells, gradient of SDF-1; test: Chemotactic assay (cell migration assay); assay type: cell-based; conditions: 1 nM SDF-1, 4 hours
Experimental: 2.7. Chemotactic Assay (Cell Migration Assay)
The chemotactic response of CCRF-CEM cells to a gradient of stromal cell-derived factor 1α (SDF-1) was measured using disposable assay plates from Neuroprobe (5μ pore size) (Gaithersburg, Md.), according to the manufacturer's directions and references therein [especially ref. 8, below]. Briefly, one […] flask was washed once with Dubecco's phosphate buffered saline (DPBS), and trypsinized for 10 minutes or until cells had lifted. The trypsin was neutralized by the addition of fresh medium containing serum and the cells were pelleted, washed once in DPBS, and resuspended at 1-0.5×10^7 cells/ml in RPMI+0.5% bovine serum albumin (BSA). 45 μl of cell suspension were mixed with 5 μl of 10-fold concentrated PEM peptide diluted in the same assay medium. 35 μl of this mixture were applied to the top of the assay filter. […] The optical absorbance at 595 nm (ABS595) was read using a Tecan Genios plate reader with Magellan software. The number of cells migrated was determined by comparing ABS595 values against a standard curve generated with a known number of cells in the assay plate and were plotted against SDF-1 concentration to obtain a sigmoidal curve and to determine the IC50 values. The values for IC50 were determined using the Trendline function in Microsoft Excel by fitting a logarithmic curve to the averaged datapoints.

[4] = Plasma stability, human plasma; assay type: in vitro ADME; conditions: read-out: Stability human Plasma t1/2
[5] = Plasma stability, rat plasma; assay type: in vitro ADME; conditions: read-out: Stability rat Plasma t1/2
[6] = Maximum tolerated dose in mice; assay type: in vivo, mouse; conditions: CD1 mice, 120 mg/kg bolus, i.v, ip and sc.
Experimental: 3.1. Maximum Tolerated Dose in Mice
a) The compound of Example 1, dispersed in Water for Injection or 0.9% physiological saline), was administered, in the preliminary study, by i.v. injection at dose levels of 35, 50, 70, 85, 100, 150, 250 or 500 mg/kg to groups consisting of one male and one female mouse (Crl:CD1(ICR)). In addition, two groups comprising two male and two female mice received dose levels of 90 and 100 mg/kg, respectively, and the 50 mg/kg dose level was repeated in a group comprising one male and one female.
b) Maximum tolerated dose studies (MTD) carried out with the compound of Example 2 using CD1 mice (3 mice/group) and was performed using i.v, ip and sc. administration.

C[C@@H]1NC(=O)[C@H](CO)NC(=O)[C@@H]2CSSC[C@H](NC(=O)[C@H](Cc3ccc(O)cc3)NC(=O)[C@H](CCCNC(=N)N)NC(=O)[C@H](CCN)NC(=O)[C@H]3CCCN3C1=O)C(=O)N[C@@H](Cc1ccc(O)cc1)C(=O)N[C@@H](CCC(N)=O)C(=O)N[C@@H](CCCCN)C(=O)N1CCC[C@@H]1C(=O)N1CCC[C@H]1C(=O)N[C@@H](Cc1ccc(O)cc1)C(=O)N[C@@H](Cc1c[nH]cn1)C(=O)N[C@@H](Cc1ccc(O)cc1)C(=O)N2 [Example 2] (cyclo(YHYCSA[dP][Dab]RYCYQK[dP]P); disulfide 4-11)
CC50 at 48 h [1]: 94 µM
Hemo-lysis at 100 μM [2]: 0.3
IC50 [3]: 0.5 µM
half-life at 10 µM [4]: > 5 h
half-life at 10 µM [5]: > 5 h
survival at highest dose tested [6]: all animals survived
symptoms at highest dose tested [6]: only mild symptoms were observed
